Assay [1] concerns the target D(2) dopamine receptor (Homo sapiens) (UniProt P14416). Put plainly: Displacement of [3H]raclopride from wild type human dopamine D2L receptor expressed in FlpIn CHO cell membrane assessed as equilibrium dissociation constant after 3 hrs by MicroBeta counting analysis. In kind it is cell membranes. In general terms: Displacement assays read how much labelled ligand stays bound in the presence of the test substance.

Assay [2] shares this target. Briefly: Negative allosteric modulator activity at wild type human dopamine D2L receptor expressed in FlpIn CHO […] assessed as ERK1/2 phosphorylation measured as equilibrium dissociation constant after 30 mins. The class given is cell-based.
Assay [3] shares this target. Put plainly: Binding affinity to human dopamine D2 receptor.

Sequence of D(2) dopamine receptor (Homo sapiens) (P14416 whole entry): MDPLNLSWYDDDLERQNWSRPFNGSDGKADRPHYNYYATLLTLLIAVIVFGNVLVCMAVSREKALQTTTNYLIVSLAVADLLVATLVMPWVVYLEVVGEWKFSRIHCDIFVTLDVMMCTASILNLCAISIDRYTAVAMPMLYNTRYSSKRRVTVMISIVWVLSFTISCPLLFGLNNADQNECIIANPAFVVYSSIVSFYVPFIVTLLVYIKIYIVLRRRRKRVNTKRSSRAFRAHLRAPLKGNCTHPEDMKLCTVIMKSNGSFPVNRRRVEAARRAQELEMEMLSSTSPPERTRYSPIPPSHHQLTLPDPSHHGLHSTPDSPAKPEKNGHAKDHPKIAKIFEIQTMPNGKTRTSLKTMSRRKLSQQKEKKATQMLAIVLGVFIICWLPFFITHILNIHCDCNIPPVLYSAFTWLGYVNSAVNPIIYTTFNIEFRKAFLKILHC

In general, pKb refers to −log10 of the Kb, conventionally taken in molar units. As for `O=C(N[C@H]1CC[C@H](CCN2CCc3ccc(F)cc3C2)CC1)c1cc2ccccc2[nH]1`, the results for the Kb in assay [1] and in assay [2] were 245 nM and 1050 nM, respectively. Further, the pKb in assay [1] was 6.61; in assay [2] it was 5.98.

Turning to `N#Cc1ccc2c(c1)CN(CC[C@H]1CC[C@H](NC(=O)c3ccc[nH]3)CC1)CC2`, in assay [1], the Kb worked out at 57.5 nM and the pKb was found to be 7.24. In assay [2], the Kb came out at 3.31 nM and the pKb stood at 8.48.

Consider `N#Cc1ccc2c(c1)CN(CCCCNC(=O)c1cc3ccccc3[nH]1)CC2`, for which, in assay [1], the Kb stood at 158 nM and the pKb was determined as 6.8. Also, in assay [2], the Kb is 81.2 nM and the pKb is 7.09.

For `O=C(N[C@H]1CC[C@H](CCN2CCc3ccc(Br)cc3C2)CC1)c1cc2ccccc2[nH]1`, the Kb in assay [1] was found to be 170 nM; in assay [2] it was 138 nM. Further, the pKb came out at 6.77 in assay [1] and 6.86 in assay [2].

For `CN(C(=O)c1cc2ccccc2[nH]1)[C@H]1CC[C@H](CCN2CCc3ccc(C#N)cc3C2)CC1`, the values for the Kb in assay [1] and in assay [2] were 117 nM and 91.2 nM, respectively. The pKb came out at 6.93 in assay [1] and 7.04 in assay [2].

`N#Cc1ccc2c(c1)CN(CC[C@H]1CC[C@H](NC(=O)[C@@H]3CCCN3)CC1)CC2`: the values for the Kb in assay [1] and in assay [2] were 23.4 nM and 27.5 nM, respectively. Moreover, the figures for the pKb in assay [1] and in assay [2] were 7.63 and 7.56, respectively.

Consider `N#Cc1ccc2c(c1)CN(CCCNC(=O)c1cc3ccccc3[nH]1)CC2`, for which, in assay [1], the Kb was 372 nM and the pKb turned out to be 6.43. In assay [2], the Kb turned out to be 138 nM and the pKb came out at 6.86.

Take `N#Cc1ccc2c(c1)CN(CC[C@H]1CC[C@H](NC(=O)[C@H]3CCCN3)CC1)CC2`: in assay [1], the Kb was 363 nM and the pKb was determined as 6.74. In addition, in assay [2], the Kb was 45.7 nM and the pKb turned out to be 7.34.

Regarding `O=C(N[C@H]1CC[C@H](CCN2CCc3ccc(Cl)cc3C2)CC1)c1cc2ccccc2[nH]1`, in assay [1], the Kb came out at 148 nM and the pKb turned out to be 6.83. Moreover, in assay [2], the Kb is 2090 nM and the pKb worked out at 5.68.

Turning to `O=C(N[C@H]1CC[C@H](CCN2CCN(c3cccc(Cl)c3Cl)CC2)CC1)c1cc2ccccc2[nH]1`, in assay [1], the Kb amounted to 5.25 nM and the pKb is 8.28. For the same compound, in assay [2], the Kb was 1.38 nM and the pKb came out at 8.86.

In the case of `O=C(N[C@H]1CC[C@H](CCN2CCc3sccc3C2)CC1)c1cc2ccccc2[nH]1`, in assay [1], the Kb was 2240 nM and the pKb came to 5.65. In assay [2], the Kb came out at 339 nM and the pKb came to 6.47.

For `Cn1c(C(=O)N[C@H]2CC[C@H](CCN3CCc4ccc(C#N)cc4C3)CC2)cc2ccccc21`, in assay [1], the Kb is 151 nM and the pKb turned out to be 6.82. In addition, in assay [2], the Kb came to 72.4 nM and the pKb is 7.14.

On to `N#Cc1ccc2c(c1)CN(CC[C@H]1CC[C@H](NC(=O)c3nc4ccccc4[nH]3)CC1)CC2`, for which the Kb was found to be 81.3 nM in assay [1] and 174 nM in assay [2]. For the same compound, the values for the pKb in assay [1] and in assay [2] were 7.09 and 6.76, respectively.

For the compound `O=C(N[C@H]1CC[C@H](CCN2CCc3ccccc3C2)CC1)c1cc2ccccc2[nH]1`, in assay [1], the Kb was determined as 295 nM and the pKb was determined as 6.53. Moreover, in assay [2], the Kb worked out at 87 nM and the pKb worked out at 7.06.

As for `N#Cc1ccc2c(c1)CN(CC[C@H]1CC[C@H](NC(=O)c3cc4ccccc4o3)CC1)CC2`, the Kb in assay [1] came to 282 nM; in assay [2], 18.2 nM. The pKb in assay [1] turned out to be 6.55; in assay [2], 7.74.

Regarding `N#Cc1ccc2c(c1)CN(CC[C@H]1CC[C@H](NC(=O)C3=Cc4ccccc4C3)CC1)CC2`, in assay [1], the Kb was 151 nM and the pKb was 6.82. In assay [2], the Kb was determined as 22.9 nM and the pKb was found to be 7.64.

In the case of `O=C(N[C@H]1CC[C@H](CCN2CCc3ccc(C(F)(F)F)cc3C2)CC1)c1cc2ccccc2[nH]1`, in assay [1], the Kb worked out at 759 nM and the pKb came out at 6.12. In assay [2], the Kb amounted to 891 nM and the pKb turned out to be 6.05.

Turning to `N#Cc1ccc2c(c1)CN(CCCCCCNC(=O)c1cc3ccccc3[nH]1)CC2`, in assay [1], the Kb was found to be 269 nM and the pKb was determined as 6.57. In assay [2], the Kb is 30.1 nM and the pKb was found to be 7.52.

In the case of `N#Cc1ccc2c(c1)CNCC2`, the Kb in assay [3] was 2500 nM.

For `N#Cc1ccc2c(c1)CN(CC[C@H]1CC[C@H](NC(=O)c3nc4ccccc4o3)CC1)CC2`, the results for the Kb in assay [1] and in assay [2] were 263 nM and 18.2 nM, respectively. The pKb in assay [1] was found to be 6.58; in assay [2], 7.74.

On to `O=C(N[C@H]1CC[C@H](CCN2CCCc3ccccc3C2)CC1)c1cc2ccccc2[nH]1`, for which, in assay [1], the Kb turned out to be 2510 nM and the negative logarithm of the Kb (pKb) came out at 5.6. In assay [2], the Kb was found to be 2570 nM and the pKb amounted to 5.59.

With `N#Cc1ccc2c(c1)CN(CCCCCNC(=O)c1cc3ccccc3[nH]1)CC2`, the values for the Kb in assay [1] and in assay [2] were 479 nM and 132 nM, respectively. Moreover, the values for the pKb in assay [1] and in assay [2] were 6.32 and 6.88, respectively.

For `COc1ccccc1N1CCN(CC[C@H]2CC[C@H](NC(=O)c3cc4ccccc4[nH]3)CC2)CC1`, in assay [1], the Kb was 3.4 nM and the pKb came out at 8.41. In assay [2], the Kb was 0.257 nM and the pKb is 9.59.

For the compound `N#Cc1ccc2c(c1)CN(CC[C@H]1CC[C@H](NC(=O)c3cc4cccnc4[nH]3)CC1)CC2`, the Kb in assay [1] amounted to 45.7 nM; in assay [2], 23.4 nM. For the same compound, the pKb was found to be 7.34 in assay [1] and 7.63 in assay [2].

For the origin of these results see ChEMBL document CHEMBL3580546, “Structure-activity study of N-((trans)-4-(2-(7-cyano-3,4-dihydroisoquinolin-2(1H)-yl)ethyl)cyclohexyl)-1H-indole-2-carboxamide (SB269652), a bitopic ligand that acts as a negative allosteric modulator of the dopamine D2 receptor” (J Med Chem, 2015).
